The test system of one assay is Zymoseptoria tritici. Briefly: Leaf Blotch of Wheat (SEPTTR) fungicidal activity. The format is in vivo. Conditions: wheat leaf blotch; for pest or weed control at 100 ppm: High Volume application; for pest or weed control at 121.5 g/ha: Low Volume application, 121.5 g/H. The protocol: Example A: Evaluation of Fungicidal Activity: Leaf Blotch of Wheat (Zymoseptoria tritici; Bayer Code […]) Technical grades of materials were dissolved in acetone, which were then mixed with nine volumes of H2O containing 110 ppm Triton X-100. The fungicide solutions were applied onto wheat seedlings using an automated booth sprayer to run-off. All sprayed plants were allowed to air dry prior to further handling. All fungicides were evaluated using the aforementioned method for their activity vs. all target diseases, unless stated otherwise. Wheat leaf blotch and brown rust activity were also evaluated using track spray applications, in which case the fungicides were formulated as EC formulations, containing 0.1% Trycol 5941 in the spray solutions. Wheat plants (variety Yuma) were grown from seed in a greenhouse in 50% mineral soil/50% soil-less Metro mix until the first leaf was fully emerged, with 7-10 seedlings per pot. These plants were inoculated with an aqueous spore suspension of Zymoseptoria tritici either prior to or after fungicide treatments. After inoculation the plants were kept in 100% relative humidity (one day in a dark dew chamber followed by two to three days in a lighted dew chamber at 20° C.) to permit spores to germinate and infect the leaf. The plants were then transferred to a greenhouse set at 20° C. for disease to develop. When disease symptoms were fully expressed on the 1st leaves of untreated plants, infection levels were assessed on a scale of 0 to 100 percent disease severity. Percent disease control was calculated using the ratio of disease severity on treated plants relative to untreated plants.

The test system of a further assay is Puccinia triticina. Briefly: Wheat Brown Rust (PUCCRT) fungicidal activity. The format is in vivo. The conditions noted are these: for pest or weed control at 100 ppm: High Volume application; for pest or weed control at 121.5 g/ha: Low Volume application, 121.5 g/H. The protocol:
Technical grades of materials were dissolved in acetone, which were then mixed with nine volumes of H2O containing 110 ppm Triton X-100. The fungicide solutions were applied onto wheat seedlings using an automated booth sprayer to run-off. All sprayed plants were allowed to air dry prior to further handling. All fungicides were evaluated using the aforementioned method for their activity vs. all target diseases, unless stated otherwise. Wheat leaf blotch and brown rust activity were also evaluated using track spray applications, in which case the fungicides were formulated as EC formulations, containing 0.1% Trycol 5941 in the spray solutions. Wheat plants (variety Yuma) were grown from seed in a greenhouse in 50% mineral soil/50% soil-less Metro mix until the first leaf was fully emerged, with 7-10 seedlings per pot. These plants were inoculated with an aqueous spore suspension of Zymoseptoria tritici either prior to or after fungicide treatments. After inoculation the plants were kept in 100% relative humidity (one day in a dark dew chamber followed by two to three days in a lighted dew chamber at 20° C.) to permit spores to germinate and infect the leaf. The plants were then transferred to a greenhouse set at 20° C. for disease to develop. When disease symptoms were fully expressed on the 1st leaves of untreated plants, infection levels were assessed on a scale of 0 to 100 percent disease severity. Percent disease control was calculated using the ratio of disease severity on treated plants relative to untreated plants. Example B: Evaluation of Fungicidal Activity: Wheat Brown Rust (Puccinia triticina; Bayer Code PUCCRT) Wheat plants (variety Yuma) were grown from seed in a greenhouse in 50% mineral soil/50% soil-less Metro mix until the first leaf was fully emerged, with 7-10 seedlings per pot. These plants were inoculated with an aqueous spore suspension of Puccinia triticina either prior to or after fungicide treatments. After inoculation the plants were kept in a dark dew room at 22° C. with 100% relative humidity overnight to permit spores to germinate and infect the leaf. The plants were then transferred to a greenhouse set at 24° C. for disease to develop. Fungicide formulation, application and disease assessment followed the procedures as described in the Example A.

Setting [1] is: 24 h, 1 day protectant, read-out: SEPTTR disease control, 1DP (1 Day Protectant).
Where [2] appears, read: 72 h, 3 day curative, read-out: SEPTTR disease control, 3DC (3 Day Curative).
Setting [3] is: 24 h, 1 day protectant, read-out: PUCCRT disease control, 1DP (1 Day Protectant).
Where [4] appears, read: 72 h, 3 day curative, read-out: PUCCRT disease control, 3DC (3 Day Curative).

Read-outs that look alike come from different tables or passages of the source.

Turning to `CCCCCO[C@H]1[C@H](C)OC(=O)[C@@H](NC(=O)c2nccc(OC)c2OCOC(C)=O)CCCC[C@@H]1OC(=O)c1ccccc1` [Compound 15], the pest or weed control at 100 ppm in the assay with Zymoseptoria tritici (setting [1]), in the assay with Zymoseptoria tritici (setting [2]), with Puccinia triticina (setting [3]) and in the assay on Puccinia triticina (setting [4]) was more than 80% each time. Besides, the pest or weed control at 121.5 g/ha was more than 80% in the assay on Zymoseptoria tritici (setting [1]), more than 80% in the assay with Zymoseptoria tritici (setting [2]), more than 80% in the assay on Puccinia triticina (setting [3]) and less than 80% in the assay with Puccinia triticina (setting [4]).

As to `COc1ccnc(C(=O)N[C@H]2CCCC[C@H](CC3CCCC3)[C@@H](Oc3ccccc3)[C@H](C)OC2=O)c1OCOC(C)=O` [Compound 50], the pest or weed control at 121.5 g/ha was more than 80% in the assay with Zymoseptoria tritici (setting [1]), less than 80% in the assay with Zymoseptoria tritici (setting [2]), more than 80% with Puccinia triticina (setting [3]) and more than 80% with Puccinia triticina (setting [4]).

As for `COc1ccnc(C(=O)N[C@H]2COCC[C@H](Cc3ccc(F)cc3)[C@@H](OC(=O)C(C)C)[C@H](C)OC2=O)c1OC(C)=O` [Compound 75], the pest or weed control at 121.5 g/ha with Zymoseptoria tritici (setting [1]) is more than 80%; with Zymoseptoria tritici (setting [2]), less than 80%; in the assay on Puccinia triticina (setting [3]), more than 80%; in the assay with Puccinia triticina (setting [4]) it was more than 80%.

With `COc1ccnc(C(=O)N[C@H]2CCCC[C@H](Cc3ccccc3)[C@@H](Oc3ccccc3)[C@H](C)OC2=O)c1O` [Compound 128], the pest or weed control at 100 ppm was more than 80% in the assay with Zymoseptoria tritici (setting [1]), less than 80% in the assay with Zymoseptoria tritici (setting [2]), more than 80% in the assay on Puccinia triticina (setting [3]) and more than 80% in the assay on Puccinia triticina (setting [4]).

Consider `COc1ccnc(C(=O)N[C@H]2CCCC[C@H](Oc3ccccc3)[C@@H](OCC(C)C)[C@H](C)OC2=O)c1O` [Compound 90], for which the pest or weed control at 100 ppm in the assay with Zymoseptoria tritici (setting [1]) is more than 80%; with Zymoseptoria tritici (setting [2]), less than 80%; with Puccinia triticina (setting [3]) it was more than 80%; with Puccinia triticina (setting [4]), less than 80%.

As for `COc1ccnc(C(=O)N[C@H]2COCC[C@H](OCc3ccccc3)[C@@H](OCc3ccccc3)[C@H](C)OC2=O)c1O` [Compound 81], the pest or weed control at 100 ppm in the assay on Zymoseptoria tritici (setting [1]), in the assay with Puccinia triticina (setting [3]) and in the assay on Puccinia triticina (setting [4]) was more than 80% each time.

On to `CCCCO[C@H]1CCOC[C@H](NC(=O)c2nccc(OC)c2O)C(=O)O[C@@H](C)[C@@H]1OCc1ccccc1` [Compound 82], for which the pest or weed control at 100 ppm with Zymoseptoria tritici (setting [1]) was less than 80%; with Zymoseptoria tritici (setting [2]), more than 80%; with Puccinia triticina (setting [3]), more than 80%; in the assay with Puccinia triticina (setting [4]), more than 80%.

In the case of `COc1ccnc(C(=O)N[C@H]2CCCC[C@@H]3OC(C)(C)O[C@H]3[C@H](C)OC2=O)c1OCOC(C)=O` [Compound 33], the pest or weed control at 121.5 g/ha in the assay with Zymoseptoria tritici (setting [1]) is less than 80%; with Zymoseptoria tritici (setting [2]), more than 80%; in the assay on Puccinia triticina (setting [3]), more than 80%; in the assay with Puccinia triticina (setting [4]) it was more than 80%.

In the case of `COc1ccnc(C(=O)N[C@H]2CCCC[C@H](CC3CCCC3)[C@@H](OC(=O)C(C)C)[C@H](C)OC2=O)c1OC(C)=O` [Compound 56, (2S,3R,4R,9S)-9-(3-acetoxy-4-methoxypicolinamido)-4-(cyclopentylmethyl)-2-methyl-10-oxooxecan-3-yl isobutyrate], the pest or weed control at 121.5 g/ha in the assay with Zymoseptoria tritici (setting [1]) was more than 80%; in the assay with Zymoseptoria tritici (setting [2]), less than 80%; in the assay on Puccinia triticina (setting [3]), more than 80%; in the assay on Puccinia triticina (setting [4]), less than 80%.

With `COc1ccnc(C(=O)N[C@H]2CCCC[C@H](OC)[C@@H](OC)[C@H](C)OC2=O)c1OCOC(C)=O` [Compound 22], the pest or weed control at 121.5 g/ha with Zymoseptoria tritici (setting [2]) was less than 80%; in the assay with Puccinia triticina (setting [3]), more than 80%; in the assay on Puccinia triticina (setting [4]), more than 80%.

For the molecule `CCCO[C@H]1CCCC[C@H](NC(=O)c2nccc(OC)c2O)C(=O)O[C@@H](C)[C@@H]1Oc1ccccc1` [Compound 100], the pest or weed control at 100 ppm in the assay on Zymoseptoria tritici (setting [1]), in the assay on Zymoseptoria tritici (setting [2]), with Puccinia triticina (setting [3]) and in the assay with Puccinia triticina (setting [4]) was more than 80% throughout.

As to `CC[C@H]1CCOC[C@H](NC(=O)c2nccc(OC)c2O)C(=O)O[C@@H](C)[C@@H]1OC(=O)C1CC1` [Compound 136], the pest or weed control at 100 ppm in the assay on Zymoseptoria tritici (setting [2]) is less than 80%; with Puccinia triticina (setting [3]), more than 80%; in the assay on Puccinia triticina (setting [4]) it was more than 80%.

Take `CC[C@H]1CCOC[C@H](NC(=O)c2nccc(OC)c2OCOC(C)=O)C(=O)O[C@@H](C)[C@@H]1OCC(C)C` [Compound 70]: the pest or weed control at 121.5 g/ha was more than 80% in the assay on Zymoseptoria tritici (setting [1]), less than 80% in the assay on Zymoseptoria tritici (setting [2]), more than 80% with Puccinia triticina (setting [3]) and more than 80% with Puccinia triticina (setting [4]).

For the molecule `COc1ccc(C[C@H]2CCOC[C@H](NC(=O)c3nccc(OC)c3OCOC(C)=O)C(=O)O[C@@H](C)[C@@H]2Oc2ccccc2)cc1` [Compound 66], the pest or weed control at 121.5 g/ha in the assay with Zymoseptoria tritici (setting [1]) was more than 80%; in the assay with Zymoseptoria tritici (setting [2]), more than 80%; in the assay with Puccinia triticina (setting [3]), more than 80%; in the assay with Puccinia triticina (setting [4]), less than 80%.

`COc1ccnc(C(=O)N[C@H]2COCC[C@H](Cc3ccc(F)cc3)[C@@H](Oc3ccccc3)[C@H](C)OC2=O)c1OCOC(=O)C(C)C` [Compound 73]: the pest or weed control at 121.5 g/ha with Zymoseptoria tritici (setting [1]), with Zymoseptoria tritici (setting [2]), with Puccinia triticina (setting [3]) and with Puccinia triticina (setting [4]) was more than 80% throughout.

For `COc1ccnc(C(=O)N[C@H]2CCOC[C@H](OC(=O)C(C)C)[C@@H](Oc3ccccc3)[C@H](C)OC2=O)c1OCOC(C)=O` [Compound 44], the pest or weed control at 121.5 g/ha in the assay on Zymoseptoria tritici (setting [1]) is less than 80%; with Zymoseptoria tritici (setting [2]), less than 80%; in the assay on Puccinia triticina (setting [3]), more than 80%; with Puccinia triticina (setting [4]), more than 80%.

In the case of `COc1ccnc(C(=O)N[C@H]2CCCC[C@@H]3OC(C)(C)O[C@H]3[C@H](C)OC2=O)c1OC(C)=O` [Compound 29], the pest or weed control at 121.5 g/ha in the assay with Zymoseptoria tritici (setting [1]) is less than 80%; in the assay on Zymoseptoria tritici (setting [2]) it was more than 80%; with Puccinia triticina (setting [3]), more than 80%; in the assay on Puccinia triticina (setting [4]), more than 80%.

In the case of `COc1ccnc(C(=O)N[C@H]2CCCC[C@H](OCc3ccccc3)[C@@H](OCc3ccccc3)[C@H](C)OC2=O)c1OC(C)=O` [Compound 9], the pest or weed control at 100 ppm with Zymoseptoria tritici (setting [1]) was more than 80%; with Zymoseptoria tritici (setting [2]), less than 80%; in the assay on Puccinia triticina (setting [3]), more than 80%; in the assay with Puccinia triticina (setting [4]), more than 80%. The pest or weed control at 121.5 g/ha in the assay with Zymoseptoria tritici (setting [1]) was more than 80%; with Zymoseptoria tritici (setting [2]) it was more than 80%; in the assay with Puccinia triticina (setting [3]), more than 80%; in the assay with Puccinia triticina (setting [4]), less than 80%.

As to `COc1ccnc(C(=O)N[C@H]2CCCC[C@H](OCC(C)C)[C@@H](OCC(C)C)[C@H](C)OC2=O)c1OCOC(C)=O` [Compound 14], the pest or weed control at 100 ppm in the assay with Zymoseptoria tritici (setting [1]), in the assay with Zymoseptoria tritici (setting [2]), in the assay on Puccinia triticina (setting [3]) and in the assay with Puccinia triticina (setting [4]) was more than 80% each time. Besides, the pest or weed control at 121.5 g/ha with Zymoseptoria tritici (setting [1]) was more than 80%; in the assay on Zymoseptoria tritici (setting [2]), less than 80%; with Puccinia triticina (setting [3]) it was more than 80%; in the assay with Puccinia triticina (setting [4]) it was less than 80%.

The record behind these values is US20180002319A1, “MACROCYCLIC PICOLINAMIDE COMPOUNDS WITH FUNGICIDAL ACTIVITY” (DOW AGROSCIENCES LLC, priority 2014, published 2018).
